Literature values in patent US20190008832A1, “COMPOSITIONS FOR THE TREATMENT OF PRESBYOPIA” (priority 2015, published 2019).

System: eye

CC[C@@H]1C(=O)OC[C@@H]1Cc1cncn1C [pilocarpine]
Side effects in some patients (WO2008/075149 compositions: pilocarpine HCl 1% and diclofenac sodium 0.5%): causes diarrhea and dyspepsia
Percentage of pilocarpine necessary to be effective in the treatment of presbyopia (single active ingredient in a topical composition): greater than 0.5 % by weight
Tolerability of pilocarpine at percentages higher than 0.5% by weight (topical, reddening of the eye, ocular and forehead pain, headaches): not tolerated
